From patent US20110212199A1, “AGENT FOR TREATING EYE DISEASES” (priority 2003, published 2011)

Tests used:
Format in all cases: in vivo, human
corneal erosion (KSD) = assay: Example 36: corneal erosion; settings: person; cyclodextrin-included eye drops of Example 32(1), 1 drop (50 μl) twice a day for 3 days
myopia = assay: Example 37: myopia; settings: 21 days; before 0.9
cataract [1] = assay: Example 38: cataract; settings: 49 days
open-angle glaucoma [2] = assay: Example 39: open-angle glaucoma
From the text: It can be confirmed that it is effective for treatment of high tension glaucoma to lower intraocular pressure.

[3] = test system: Posner-Schlossmans' Syndrome (glaucoma); assay: Example 40: Posner-Schlossmans' Syndrome; settings: thereafter 100 mg/l eye drops, 1 drop (50 μl) once a day for 3 months
Experimental: Thereafter, 1 drop (50 μl) of eye drops containing trans-resveratrol (100 mg/l) included in cyclodextrin prepared in Example 32(1) was administered once a day for 3 months, then no attack occurred for 3 months or more.

open-angle glaucoma [4] = assay: Example 41: open-angle glaucoma; settings: person; 100 mg/l, 1 drop (50 μl) once a day for 14 days
From the text: It can be confirmed that administration of trans-resveratrol to eye is effective for treatment of high tension glaucoma.

normal tension glaucoma = assay: Example 42: normal tension glaucoma; settings: person; 100 mg/l, 1 drop (50 μl) once a day for 33 days
From the text: It can be confirmed that administration of trans-resveratrol to eyes is effective for treatment of normal tension glaucoma.

[5] = test system: central retinal vein occlusion; assay: Example 57: central retinal vein occlusion; settings: person; 100 mg/l, 1 drop (50 μl) twice a day for 112 days
From the text: It can be confirmed that administration of trans-resveratrol with eye drops is effective for the treatment of central retinal vein occlusion.

glaucoma = assay: Example 58: glaucoma; settings: person; 100 mg/l, 1 drop (50 μl) twice a day for 3 months
From the text: It can be confirmed that administration of trans-resveratrol with eye drops is effective for the treatment of glaucoma.

iridocyclitis = assay: Example 60: iridocyclitis; settings: person, right eye; 100 mg/l, 1 drop (50 μl) twice a day for 10 days
From the text: It can be confirmed that administration of trans-resveratrol is effective for the treatment of iridocyclitis.

[6] = test system: dry eye and ischemic optic neuropathy; assay: Example 61: dry eye and ischemic optic neuropathy
From the text: It can be confirmed that administration of trans-resveratrol is effective for the treatment of dry eye and ischemic optic neuropathy.

cataract [7] = assay: Example 62: cataract; settings: person, right eye; 100 mg/l, 1 drop (50 μl) twice a day for 67 days
[8] = test system: pigmentary retinal degeneration; assay: Example 45: pigmentary retinal degeneration; settings: person; 60 mg/l included in cyclodextrin, 1 drop (50 μl) twice a day for 3 months
[9] = test system: primary open angle glaucoma; assay: Example 56: primary open angle glaucoma; settings: person; 10 mg/l in 2-hydroxypropyl-β-cyclodextrin and γ-cyclodextrin, 1 drop (50 μl) twice a day for a half year
From the text: It can be confirmed that administration of raloxifen with eye drops is effective for the treatment of primary open angle glaucoma.

SMILES | corneal erosion symptom (corneal erosion (KSD)) | visual acuity Vs (myopia) | cataract opacity, slit lamp microscope (cataract [1]) | corrected visual acuity Vs (cataract [1]; before 1.2) | intraocular pressure ToS (open-angle glaucoma [2]; 98 days, before 22) [mmHg] | intraocular pressure ToD (open-angle glaucoma [2]; person, 100 mg/l, 1 drop (50 μl) twice a day for 98 days, before 21) [mmHG] | period without attack [3] [months] | visual field, left eye (open-angle glaucoma [4]) | visual fields (normal tension glaucoma) | chorioretinal hemorrhage, left eye [5] | visual fields by OCTOPUS 1-2-3 static perimeter (glaucoma) | iridocyclitis outcome (iridocyclitis) | ischemic optic neuropathy ([6]; 46 days) | lacrimation and dry eye ([6]; person, 100 mg/l, 1 drop (50 μl) twice a day for 46 days) | opacity of cataract (cataract [7]) | visual field [8] | visual fields by OCTOPUS 1-2-3 static perimeter [9]
Oc1ccc(/C=C/c2cc(O)cc(O)c2)cc1 [trans-resveratrol] | the symptom was lightened | 1.2 | cataract opacity was lightened | 1.5 | 13 | 14 | ≥ 3 | visual field was improved | visual fields were improved | chorioretinal hemorrhage was disappeared | the visual fields were improved | iridocyclitis was cured | ischemic optic neuropath was improved | lacrimation was increased, dry eye was cured | opacity of cataract was reduced |  | 
O=C(c1ccc(OCCN2CCCCC2)cc1)c1c(-c2ccc(O)cc2)sc2cc(O)ccc12 [raloxifene] |  |  |  |  |  |  |  |  |  |  |  |  |  |  |  | visual field was improved | the visual fields were improved
